For 15 compounds, Emax and Ki results are on record in ChEMBL document CHEMBL1137955, “Advances toward new antidepressants beyond SSRIs: 1-aryloxy-3-piperidinylpropan-2-ols with dual 5-HT1A receptor antagonism/SSRI activities. Part 4” (Bioorg Med Chem Lett, 2004).

For the first assay, the target named is T1, 5-hydroxytryptamine receptor 1A (Homo sapiens) (UniProt P08908).
T1 sequence (whole entry): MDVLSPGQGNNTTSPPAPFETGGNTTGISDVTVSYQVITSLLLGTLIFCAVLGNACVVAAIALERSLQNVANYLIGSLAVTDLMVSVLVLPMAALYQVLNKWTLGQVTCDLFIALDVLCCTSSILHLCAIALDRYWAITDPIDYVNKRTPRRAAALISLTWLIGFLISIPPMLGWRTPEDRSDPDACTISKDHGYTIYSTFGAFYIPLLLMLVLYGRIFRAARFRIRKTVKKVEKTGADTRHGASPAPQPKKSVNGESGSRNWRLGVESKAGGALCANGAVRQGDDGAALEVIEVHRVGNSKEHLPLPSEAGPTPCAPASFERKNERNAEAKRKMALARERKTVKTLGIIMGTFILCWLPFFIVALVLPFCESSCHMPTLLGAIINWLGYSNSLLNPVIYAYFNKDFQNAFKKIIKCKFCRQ
The assay can be described thus: Evaluated for stimulation at 1 uM concentration expressed as percent of the maximal [35S]GTP-gamma-S, binding induced by 5-hydroxytryptamine. Type of assay: functional. In general terms: GTPγS is a poorly hydrolysed GTP analogue; its binding reports G protein activation.
As usually defined, the Emax is the greatest response seen or fitted, relative to the assay's reference. `Cc1cc2c(OC[C@@H](O)CN3CC[C@@H](c4cccc5occc45)C[C@@H]3C)cccc2[nH]1` came in with an Emax of 8%.
The compound `Cc1cc2c(OC[C@@H](O)CN3CC[C@@H](c4ccc5scc(C)c5c4)C[C@@H]3C)cccc2[nH]1` yielded an Emax of 8%.
Same read-out and setting: to `O[C@@H](COc1cccc2[nH]ccc12)CN1CCC(c2cc3ccccc3s2)CC1` belongs 12%; to `Cc1cc2c(OC[C@H](O)CN3CC[C@@H](c4ccc5occc5c4)C[C@@H]3C)cccc2[nH]1`, 9%.
`COc1cccc2ccc([C@@H]3CCN(C[C@H](O)COc4cccc5[nH]c(C)cc45)[C@@H](C)C3)cc12` came in with an Emax of 11%.
Still for that read-out and setting: for `Cc1cc2c(OC[C@@H](O)CN3CC[C@@H](c4ccc5ccsc5c4)C[C@@H]3C)cccc2[nH]1` the value was 12%; for `Cc1cc2c(OC[C@H](O)CN3CC[C@@H](c4cccc5sccc45)C[C@@H]3C)cccc2[nH]1`, 15%.
The same measure, in the same setting: to `Cc1cc2c(OC[C@@H](O)CN3CC[C@@H](c4ccc5ccccc5c4)C[C@@H]3C)cccc2[nH]1` belongs 9%.
Still for that read-out and setting: for `Cc1cc2c(OC[C@@H](O)CN3CC[C@@H](c4cccc5ccsc45)C[C@@H]3C)cccc2[nH]1` the value was 8%; for `Cc1cc2c(OC[C@H](O)CN3CC[C@@H](c4ccc5sccc5c4)C[C@@H]3C)cccc2[nH]1`, 12%.
Compound `COc1cccc2sc([C@@H]3CCN(C[C@H](O)COc4cccc5[nH]c(C)cc45)[C@@H](C)C3)cc12` came in with an Emax of 3%.
Same read-out and setting: for `Cc1cc2c(OC[C@@H](O)CN3CC[C@@H](c4ccc5ccoc5c4)C[C@@H]3C)cccc2[nH]1` the value was 6%.
Still for that read-out and setting: to `Cc1cc2c(OC[C@@H](O)CN3CC[C@@H](c4ccc5c(C)csc5c4)C[C@@H]3C)cccc2[nH]1` belongs 4%.

Another assay concerns the target T2, 5-hydroxytryptamine receptor 1A (Homo sapiens, UniProt P08908).
T2 sequence (P08908 whole entry): T1 sequence (whole entry)
As to the kind of experiment: Binding affinity was evaluated at 5-hydroxytryptamine 1A receptor labeled with [3H]-8-OH-DPAT.
A word on the Ki: it is a dissociation constant, usually derived from enzyme kinetics or from competition with a known ligand. Take `Cc1cc2c(OC[C@@H](O)CN3CC[C@@H](c4cccc5occc45)C[C@@H]3C)cccc2[nH]1`: affinity was put at a Ki of 1.23 nM.
For `Cc1cc2c(OC[C@@H](O)CN3CC[C@@H](c4ccc5scc(C)c5c4)C[C@@H]3C)cccc2[nH]1`, the Ki was determined as 3.12 nM.
On the same count and under the same terms, to `O[C@@H](COc1cccc2[nH]ccc12)CN1CCC(c2cc3ccccc3s2)CC1` belongs 3.7 nM.
The same measure, in the same setting: to `Cc1cc2c(OC[C@H](O)CN3CC[C@@H](c4ccc5occc5c4)C[C@@H]3C)cccc2[nH]1` belongs 1.39 nM.
Compound `COc1cccc2ccc([C@@H]3CCN(C[C@H](O)COc4cccc5[nH]c(C)cc45)[C@@H](C)C3)cc12` gave a Ki of 10.9 nM.
On the same count and under the same terms, to `Cc1cc2c(OC[C@@H](O)CN3CC[C@@H](c4ccc5ccsc5c4)C[C@@H]3C)cccc2[nH]1` belongs 4.45 nM.
In turn, `Cc1cc2c(OC[C@H](O)CN3CC[C@@H](c4cccc5sccc45)C[C@@H]3C)cccc2[nH]1` yielded a Ki of 1.82 nM.
The same measure, in the same setting: for `Cc1cc2c(OC[C@@H](O)CN3CC[C@@H](c4ccc5ccccc5c4)C[C@@H]3C)cccc2[nH]1` the value was 5.11 nM; for `Cc1cc2c(OC[C@@H](O)CN3CC[C@@H](c4cccc5ccsc45)C[C@@H]3C)cccc2[nH]1`, 0.91 nM.
`Cc1cc2c(OC[C@H](O)CN3CC[C@@H](c4ccc5sccc5c4)C[C@@H]3C)cccc2[nH]1` had a Ki of 1.43 nM.
The compound `O[C@@H](COc1cccc2[nH]ccc12)CN1CCC(c2csc3ccccc23)CC1` yielded an inhibition constant (Ki) of 1.84 nM.
Same read-out and setting: to `Cc1cc2c(OC[C@@H](O)CN3CC[C@@H](c4ccc5ccoc5c4)C[C@@H]3C)cccc2[nH]1` belongs 1.05 nM; to `Cc1cc2c(OC[C@@H](O)CN3CC[C@@H](c4ccc5c(C)csc5c4)C[C@@H]3C)cccc2[nH]1`, 7.82 nM.

In a further assay the target is Sodium-dependent serotonin transporter (Homo sapiens, UniProt P31645). The assay can be described thus: Binding affinity at 5-HT reuptake site labeled with [3H]paroxetine.
Sequence of Sodium-dependent serotonin transporter (P31645 whole entry): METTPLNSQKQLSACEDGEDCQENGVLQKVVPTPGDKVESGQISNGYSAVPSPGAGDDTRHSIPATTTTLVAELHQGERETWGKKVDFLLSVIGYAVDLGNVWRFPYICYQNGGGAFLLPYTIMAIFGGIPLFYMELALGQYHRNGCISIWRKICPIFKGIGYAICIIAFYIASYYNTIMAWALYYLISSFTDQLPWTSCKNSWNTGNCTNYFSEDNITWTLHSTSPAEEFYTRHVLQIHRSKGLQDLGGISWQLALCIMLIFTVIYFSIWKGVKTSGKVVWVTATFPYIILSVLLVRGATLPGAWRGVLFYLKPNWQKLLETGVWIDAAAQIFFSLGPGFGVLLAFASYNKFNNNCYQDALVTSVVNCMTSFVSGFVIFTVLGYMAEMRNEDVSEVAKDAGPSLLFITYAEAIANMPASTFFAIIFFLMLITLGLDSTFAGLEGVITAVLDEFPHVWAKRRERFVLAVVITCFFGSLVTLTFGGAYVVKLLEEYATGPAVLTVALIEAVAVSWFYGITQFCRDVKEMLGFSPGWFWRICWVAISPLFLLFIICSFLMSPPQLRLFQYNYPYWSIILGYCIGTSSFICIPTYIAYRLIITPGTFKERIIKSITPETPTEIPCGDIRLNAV
In the case of `Cc1cc2c(OC[C@@H](O)CN3CC[C@@H](c4cccc5occc45)C[C@@H]3C)cccc2[nH]1`, the Ki was 7.18 nM. This lies in the single-digit nanomolar range.
On the same count and under the same terms, for `Cc1cc2c(OC[C@@H](O)CN3CC[C@@H](c4ccc5scc(C)c5c4)C[C@@H]3C)cccc2[nH]1` the value was 0.54 nM; for `O[C@@H](COc1cccc2[nH]ccc12)CN1CCC(c2cc3ccccc3s2)CC1`, 16.7 nM.
In the case of `Cc1cc2c(OC[C@H](O)CN3CC[C@@H](c4ccc5occc5c4)C[C@@H]3C)cccc2[nH]1`, the affinity, expressed as Ki, was 1.69 nM. Compared with the last compound, the Ki is about 9.9-fold lower.
On the same count and under the same terms, for `COc1cccc2ccc([C@@H]3CCN(C[C@H](O)COc4cccc5[nH]c(C)cc45)[C@@H](C)C3)cc12` the value was 0.34 nM; for `Cc1cc2c(OC[C@@H](O)CN3CC[C@@H](c4ccc5ccsc5c4)C[C@@H]3C)cccc2[nH]1`, 0.75 nM.
Still for that read-out and setting: to `Cc1cc2c(OC[C@H](O)CN3CC[C@@H](c4cccc5sccc45)C[C@@H]3C)cccc2[nH]1` belongs 4.35 nM; to `Cc1cc2c(OC[C@@H](O)CN3CC[C@@H](c4ccc5ccccc5c4)C[C@@H]3C)cccc2[nH]1`, 0.4 nM.
Same read-out and setting: for `Cc1cc2c(OC[C@@H](O)CN3CC[C@@H](c4cc5ccccc5s4)C[C@@H]3C)cccc2[nH]1` the value was 0.53 nM; for `Cc1cc2c(OC[C@@H](O)CN3CC[C@@H](c4cccc5ccsc45)C[C@@H]3C)cccc2[nH]1`, 9.24 nM.
In turn, `Cc1cc2c(OC[C@H](O)CN3CC[C@@H](c4ccc5sccc5c4)C[C@@H]3C)cccc2[nH]1` returned a Ki of 0.3 nM.
Same read-out and setting: for `COc1cccc2sc([C@@H]3CCN(C[C@H](O)COc4cccc5[nH]c(C)cc45)[C@@H](C)C3)cc12` the value was 0.86 nM; for `Cc1cc2c(OC[C@@H](O)CN3CC[C@@H](c4ccc5ccoc5c4)C[C@@H]3C)cccc2[nH]1`, 3.77 nM.
Still for that read-out and setting: to `Cc1cc2c(OC[C@@H](O)CN3CC[C@@H](c4ccc5c(C)csc5c4)C[C@@H]3C)cccc2[nH]1` belongs 0.58 nM.
